Reference: paper PMC4230996 (Journal of Medicinal Chemistry, 2014)

Tests used:
[1] = system: mGlu4; conditions: read-out: hEC50; human mGlu4 PAM potency; cited from earlier work
[2] = target: mGlu4 (Rattus norvegicus, UniProt P31423); assay: PET imaging of [^18F]3 in rats, baseline and blocking studies; type: in vivo, rat (male Sprague–Dawley); conditions: blocking agent 10 mg/kg injected 5 min before [^18F]3; uptake as area under TAC
[3] = system: mGlu1a; assay: selectivity functional assay, IPs accumulation in CHO cells; type: cell-based; conditions: single concentration 10 μM
[4] = system: mGlu5a; assay: as above; type: cell-based; conditions: single concentration 10 μM
[5] = target: mGlu8 (Homo sapiens, UniProt O00222); assay: selectivity test, split luciferase biosensor cAMP assay in transfected CHO cells; type: cell-based; conditions: single concentration 10 μM
Chain of mGlu8 (O00222 34-908): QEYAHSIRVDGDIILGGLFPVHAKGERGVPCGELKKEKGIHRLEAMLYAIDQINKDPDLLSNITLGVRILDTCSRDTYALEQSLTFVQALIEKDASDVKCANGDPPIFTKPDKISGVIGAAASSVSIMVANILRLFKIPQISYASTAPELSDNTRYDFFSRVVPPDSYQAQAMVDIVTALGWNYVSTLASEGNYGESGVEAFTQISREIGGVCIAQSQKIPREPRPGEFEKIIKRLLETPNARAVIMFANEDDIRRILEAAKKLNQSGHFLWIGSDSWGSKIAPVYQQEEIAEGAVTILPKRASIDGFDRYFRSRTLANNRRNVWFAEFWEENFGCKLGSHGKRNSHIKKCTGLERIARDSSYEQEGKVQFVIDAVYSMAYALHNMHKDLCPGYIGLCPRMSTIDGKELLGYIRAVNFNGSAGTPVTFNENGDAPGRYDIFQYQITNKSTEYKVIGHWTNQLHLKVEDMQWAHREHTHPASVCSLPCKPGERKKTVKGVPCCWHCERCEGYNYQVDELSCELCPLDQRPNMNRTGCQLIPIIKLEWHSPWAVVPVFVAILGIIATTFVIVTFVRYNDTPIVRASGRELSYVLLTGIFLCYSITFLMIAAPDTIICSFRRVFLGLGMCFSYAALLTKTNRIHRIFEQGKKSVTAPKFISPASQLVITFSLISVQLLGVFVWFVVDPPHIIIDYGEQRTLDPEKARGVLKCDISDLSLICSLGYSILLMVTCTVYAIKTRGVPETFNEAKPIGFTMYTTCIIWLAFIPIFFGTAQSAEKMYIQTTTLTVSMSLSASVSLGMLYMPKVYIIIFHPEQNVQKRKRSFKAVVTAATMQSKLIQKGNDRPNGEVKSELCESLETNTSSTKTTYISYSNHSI

[6] = stability of 3 in neutral and acidic media by LC–MS; type: physicochemical
[7] = system: human mGlu4; conditions: read-out: IC50 (binding affinity to mGlu4); human mGlu4, Merck's patent; cited from earlier work

Chain of mGlu4 (Rattus norvegicus, UniProt P31423) (P31423 33-912): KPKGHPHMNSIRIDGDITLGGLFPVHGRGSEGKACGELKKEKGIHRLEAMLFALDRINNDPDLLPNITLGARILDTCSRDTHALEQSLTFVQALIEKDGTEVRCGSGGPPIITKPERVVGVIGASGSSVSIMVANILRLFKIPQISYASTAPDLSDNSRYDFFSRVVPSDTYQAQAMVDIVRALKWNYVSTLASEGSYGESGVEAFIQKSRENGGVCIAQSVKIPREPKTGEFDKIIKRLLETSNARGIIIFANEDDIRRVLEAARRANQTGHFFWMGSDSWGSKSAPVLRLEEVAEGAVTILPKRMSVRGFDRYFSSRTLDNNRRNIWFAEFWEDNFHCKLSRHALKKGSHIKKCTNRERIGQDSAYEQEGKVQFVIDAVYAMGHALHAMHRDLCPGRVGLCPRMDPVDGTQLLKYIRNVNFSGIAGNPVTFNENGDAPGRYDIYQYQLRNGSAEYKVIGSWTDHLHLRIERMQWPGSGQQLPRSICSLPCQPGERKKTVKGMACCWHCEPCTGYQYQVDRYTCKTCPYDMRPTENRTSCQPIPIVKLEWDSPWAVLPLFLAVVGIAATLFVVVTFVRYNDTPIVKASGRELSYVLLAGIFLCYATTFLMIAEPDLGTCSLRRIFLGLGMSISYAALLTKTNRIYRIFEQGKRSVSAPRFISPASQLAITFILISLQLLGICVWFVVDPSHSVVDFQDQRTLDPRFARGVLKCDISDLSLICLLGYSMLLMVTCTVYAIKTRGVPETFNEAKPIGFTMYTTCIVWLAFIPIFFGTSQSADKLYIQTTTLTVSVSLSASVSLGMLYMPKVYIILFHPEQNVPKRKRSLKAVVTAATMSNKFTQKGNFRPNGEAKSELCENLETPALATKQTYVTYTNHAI

SMILES: O=C(Nc1cccc(OC(F)F)c1)c1ccccn1 [Compound 2, N-(3-(difluoromethoxy)phenyl)-2-picolinamide]
- reduced uptake of [^18F]3 in rat brain regions (blocking effect) [2]: 10–20%

SMILES: O=C(Nc1ccc(N2C(=O)c3cccc(F)c3C2=O)c(Cl)c1)c1ccccn1 [Compound 3, N-(3-Chloro-4-(4-fluoro-1,3-dioxoisoindolin-2-yl)phenyl)-2-picolinamide]
- agonist or antagonist activity at mGlu1 [3]: little activity
- agonist or antagonist activity at mGlu5 [4]: little activity
- agonist or antagonist activity at mGlu8 [5]: little activity
- stability in neutral media ([6]; 0.1 M ammonium formate water–acetonitrile solution): two side products were detected
- stability in acidic media ([6]; acidic media): minimal hydrolysis products

SMILES: Cc1cccc2c1C(=O)N(c1ccc(NC(=O)c3ccccn3)cc1Br)C2=O [Compound 5]
- EC50 [1]: 101 nM
- IC50 [7]: 12 nM
